Data published in patent US9284321B2, “Piperazino[1,2-a]indol-1-ones and [1,4]diazepino[1,2-a]indol-1-one” (Hoffmann-La Roche Inc., priority 2012, dated 2016).

Tests used:
[1] = test system: human embryonic stem cell derived neural stem cells (NSCs); test: Neural Stem Cell Proliferation Assay (neurogenesis assay, ATP levels by CellTiterGlo); assay type: cell-based; conditions: 96 h, compound concentration at which 150% activity of control (100%) is reached, NSC proliferation by ATP level after 4 days incubation, dose response 8 μM to 8 nM
Description: Neurogenic properties of small molecules are determined based on the proliferation of human embryonic stem cell derived neural stem cells (NSCs) which were derived via a dual smad inhibition as previously described (Chambers, S. M., et al., Highly efficient neural conversion of human ES and iPS cells by dual inhibition of SMAD signaling, Nature biotechnology, 2009. 27(3): p. 275-80.)
Compounds respond is measured by the increase in cells based on ATP levels
(Promega:CellTiterGlo®) after an incubation period of 4 days.
NSCs are thawed and expanded over 3 passages. On the 14th day, NSCs are seeded in Polyornithin/Laminin coated 384 well plates at a cell density of 21′000 cells/cm^2 in a media volume of 38 μl.
4 hours after cell seeding, compound solutions are added at a volume of 2 μl. Stock solutions of the compounds (water, 5% DMSO) are diluted to obtain a dose response (11 points, dilution factor is 2), ranging from 8 μM to 8 nM. Controls are run to consistently determine the neurogenic properties of the cells:
Negative (neutral) control is cell culture Media (final DMSO concentration: 0.25%).
• 1. cell culture Media+100 ng/ml FGF2 (final DMSO concentration: 0.1%) • 2. cell culture Media+20 ng/ml EGF (final DMSO concentration: 0.1%) • 3. cell culture Media+100 ng/ml Wnt3a (final DMSO concentration: 0.1%)
After 4 days incubation at 37° C., 5% CO2, the amount of ATP per well is quantified. The ATP concentration is proportional to the cell number. ATP is quantified by using the Promega CellTiterGlo® kit. The CellTiterGlo® reagents contain a cell lysis buffer, a thermo stable luciferase (UltraGlo™ recombinant luciferase), magnesium and luciferin. Luciferin reacts with ATP producing oxyluciferin, AMP and light. The luminescence signal is proportional to the ATP content.
The value of negative (neutral) control is determined for each assay plate by taking the average of 16 negative control wells. The neurogenic compound response is calculated for each compound as (compound/Negative Control)*100.
The values of EC150 from the dose response curve are determined for each test compound. The EC150 is the compound concentration at which 150% activity of control (100%) is reached.

Compound	melting point [°C]	EC (150% of control) [1] [µM]
C[C@@H]1CNC(=O)c2cc3cc(F)cc(-c4cccc(F)c4)c3n21 [Example 14, (R)-8-Fluoro-6-(3-fluoro-phenyl)-4-methyl-3,4-dihydro-2H-pyrazino[1,2-a]indol-1-one]	232	0.34
Cc1c2n(c3c(-c4ccc(F)cc4F)cc(Cl)cc13)CCNC2=O [Example 100, 8-Chloro-6-(2,4-difluoro-phenyl)-10-methyl-3,4-dihydro-2H-pyrazino[1,2-a]indol-1-one]	238	0.009
O=C1NCCn2c1cc1cc(F)cc(-c3ccc(Cl)cc3)c12 [Example 23, 6-(4-Chloro-phenyl)-8-fluoro-3,4-dihydro-2H-pyrazino[1,2-a]indol-1-one]	322	0.019
Cc1c2n(c3c(-c4ccc(F)cc4)cc(Cl)cc13)CCCNC2=O [Example 70, 9-Chloro-7-(4-fluoro-phenyl)-11-methyl-2,3,4,5-tetrahydro-[1,4]diazepino[1,2-a]indol-1-one]	260	0.063
C[C@@H]1CNC(=O)c2cc3cc(F)cc(-c4ccc(C(F)(F)F)cc4)c3n21 [Example 13, (R)-8-Fluoro-4-methyl-6-(4-trifluoromethyl-phenyl)-3,4-dihydro-2H-pyrazino[1,2-a]indol-1-one]	307	0.16
C[C@@H]1CNC(=O)c2cc3cc(F)cc(-c4ccc(F)cc4)c3n21 [Example 6, (R)-8-Fluoro-6-(4-fluoro-phenyl)-4-methyl-3,4-dihydro-2H-pyrazino[1,2-a]indol-1-one]	276	0.22
Cc1c2n(c3c(-c4ccc(F)cc4F)cc(F)cc13)CCNC2=O [Example 122, 6-(2,4-Difluoro-phenyl)-8-fluoro-10-methyl-3,4-dihydro-2H-pyrazino[1,2-a]indol-1-one]	204	0.013
Cc1c2n(c3c(-c4ccc(CO)cc4)cc(Cl)cc13)CCNC2=O [Example 110, 8-Chloro-6-(4-hydroxymethyl-phenyl)-10-methyl-3,4-dihydro-2H-pyrazino[1,2-a]indol-1-one]	211	0.014
Cc1c2n(c3c(-c4ccc(F)c(F)c4)cc(Cl)cc13)CCCNC2=O [Example 68, 9-Chloro-7-(3,4-difluoro-phenyl)-11-methyl-2,3,4,5-tetrahydro-[1,4]diazepino[1,2-a]indol-1-one]	254	0.12
C[C@@H]1CNC(=O)c2cc3cc(F)cc(-c4ccc(Cl)cc4)c3n21 [Example 11, (R)-6-(4-Chloro-phenyl)-8-fluoro-4-methyl-3,4-dihydro-2H-pyrazino[1,2-a]indol-1-one]	282.5	0.1
O=C1NCCn2c1cc1cc(F)cc(-c3ccc(F)cc3)c12 [Example 18, 8-Fluoro-6-(4-fluoro-phenyl)-3,4-dihydro-2H-pyrazino[1,2-a]indol-1-one]	304	0.026
Cc1c2n(c3c(-c4ccc([N+](=O)[O-])cc4)cc(F)cc13)CCNC2=O [Example 126, 8-Fluoro-10-methyl-6-(4-nitro-phenyl)-3,4-dihydro-2H-pyrazino[1,2-a]indol-1-one]	309	0.01
CN1CCn2c(cc3cc(F)cc(-c4ccc(F)cc4)c32)C1=O [Example 63, 8-Fluoro-6-(4-fluoro-phenyl)-2-methyl-3,4-dihydro-2H-pyrazino[1,2-a]indol-1-one]	212	0.6

Second part, led by results:

melting point [°C]	Compound	EC (150% of control) [1] [µM]
268	N#Cc1cc(-c2ccc(F)nc2)c2c(c1)cc1n2CCNC1=O [Example 203, 6-(6-Fluoropyridin-3-yl)-1-oxo-3,4-dihydro-2H-pyrazino[1,2-a]indole-8-carbonitrile]	0.36
250.5	Cc1ccc(-c2cc(C#N)cc3cc4n(c23)CCCNC4=O)cc1F [Example 253, 7-(3-Fluoro-4-methylphenyl)-1-oxo-2,3,4,5-tetrahydro-[1,4]diazepino[1,2-a]indole-9-carbonitrile]	0.65
259	Cc1c2n(c3c(-c4ccc(N(C)C)nc4)cc(F)cc13)CCNC2=O [Example 158, 6-(6-Dimethylamino-pyridin-3-yl)-8-fluoro-10-methyl-3,4-dihydro-2H-pyrazino[1,2-a]indol-1-one]	0.012
300.5	N#Cc1cc(-c2ccc(Cl)nc2)c2c(c1)cc1n2CCNC1=O [Example 226, 6-(6-Chloropyridin-3-yl)-1-oxo-3,4-dihydro-2H-pyrazino[1,2-a]indole-8-carbonitrile]	2.2
312	Cc1c2n(c3c(-c4ccc([N+](=O)[O-])cc4)cc(C#N)cc13)CCNC2=O [Example 276, 10-Methyl-6-(4-nitrophenyl)-1-oxo-3,4-dihydro-2H-pyrazino[1,2-a]indole-8-carbonitrile]	0.11
260	Cc1c2n(c3c(-c4ccc(Cl)c(F)c4)cc(C#N)cc13)CCNC2=O [Example 178, 6-(4-Chloro-3-fluoro-phenyl)-10-methyl-1-oxo-1,2,3,4-tetrahydro-pyrazino[1,2-a]indole-8-carbonitrile]	0.048
270.5	COc1ncc(-c2cc(Cl)cc3c(C)c4n(c23)CCNC4=O)cn1 [Example 142, 8-Chloro-6-(2-methoxy-pyrimidin-5-yl)-10-methyl-3,4-dihydro-2H-pyrazino[1,2-a]indol-1-one]	0.039
220	COc1cc(-c2ccc(F)cc2)c2c(c1)cc1n2CCNC1=O [Example 210, 6-(4-Fluorophenyl)-8-methoxy-3,4-dihydro-2H-pyrazino[1,2-a]indol-1-one]	2.29
216.5	N#Cc1cc(-c2ccc(F)cc2F)c2c(c1)cc1n2CCCNC1=O [Example 221, 7-(2,4-Difluorophenyl)-1-oxo-2,3,4,5-tetrahydro-[1,4]diazepino[1,2-a]indole-9-carbonitrile]	0.073
264	N#Cc1cc(-c2cc(F)cc(F)c2)c2c(c1)cc1n2CCNC1=O [Example 222, 6-(3,5-Difluorophenyl)-1-oxo-3,4-dihydro-2H-pyrazino[1,2-a]indole-8-carbonitrile]	0.22
306	Cc1c2n(c3c(-c4cncnc4)cc(Cl)cc13)CCNC2=O [Example 138, 8-Chloro-10-methyl-6-pyrimidin-5-yl-3,4-dihydro-2H-pyrazino[1,2-a]indol-1-one]	0.21
247.5	Cc1c2n(c3c(-c4ccc(Cl)c(F)c4)cc(C#N)cc13)CCCNC2=O [Example 297, 7-(4-Chloro-3-fluorophenyl)-11-methyl-1-oxo-2,3,4,5-tetrahydro-[1,4]diazepino[1,2-a]indole-9-carbonitrile]	0.096
210.5	N#Cc1cc(-c2cccc(F)c2)c2c(c1)cc1n2CCCNC1=O [Example 239, 7-(3-Fluorophenyl)-1-oxo-2,3,4,5-tetrahydro-[1,4]diazepino[1,2-a]indole-9-carbonitrile]	0.61
278	Cc1c2n(c3c(-c4ccc(F)cc4)cc(C#N)cc13)CCCNC2=O [Example 198, 7-(4-Fluorophenyl)-11-methyl-1-oxo-2,3,4,5-tetrahydro-[1,4]diazepino[1,2-a]indole-9-carbonitrile]	0.033
218	Cc1c2n(c3c(-c4ccc(OC(F)(F)F)cc4)cc(C#N)cc13)CCCNC2=O [Example 201, 11-Methyl-1-oxo-7-[4-(trifluoromethoxy)-phenyl]-2,3,4,5-tetrahydro-[1,4]diazepino[1,2-a]indole-9-carbonitrile]	0.048
236	Cc1c2n(c3c(-c4ccco4)cc(F)cc13)CCNC2=O [Example 188, 8-Fluoro-6-(furan-2-yl)-10-methyl-3,4-dihydro-2H-pyrazino[1,2-a]indol-1-one]	0.1
272.5	N#Cc1cc(-c2cccnc2)c2c(c1)cc1n2CCNC1=O [Example 229, 1-Oxo-6-pyridin-3-yl-3,4-dihydro-2H-pyrazino[1,2-a]indole-8-carbonitrile]	0.94
